From paper PMC5444695, “CM363, a novel naphthoquinone derivative which acts as multikinase modulator and overcomes imatinib resistance in chronic myelogenous leukemia” (Oncotarget, 2016) come the findings set out here.

SMILES strings stand for the structures.

As a reminder, the IC50 is the concentration that gives 50% inhibition. As usually defined, the inhibition is the drop in the measured response relative to a control, in per cent.

Holding throughout (format): cell-based
The test system of test [1] is Raw cells. Kind of test: MTT cell viability assay, Raw cells. To be noted: Mus musculus, 48 h, read-out: IC50 (μM) Mean ± SD. Here is the method:
(§1) All cell lines were purchased from the American Type Culture Collection (ATCC). The cell lines were growth at 37°C under 5% CO2 under humidified atmosphere. The cell lines K562 (derived from patients during the blast crisis phase of CML and IM sensitive), K562-R (IM resistance human CML), KmycBT15I (KBTI; IM resistant human CML, expressing the Bcr-Abl […] mutant), HEL (human erythroleukemia), HL60 (human acute myeloid leukemia), MOLM-13 (human acute myeloid leukemia), MV4.11 (human acute monocytic leukemia), HCT-15 (human colorectal adenocarcinoma), PC3 (human prostate cancer), MCF7 (human breast cancer), NCTC3749 (mouse lymphoma) as well as the MRC.5 cells (non-malignant human lung fibroblasts) were maintained in RPMI-1640 medium. The cell lines L1210 (mouse lymphocytic leukemia cells), Raw (mouse macrophage), HeLa (human epithelial cervix cancer), U-2 OS (human osteosarcoma), MG63 (human osteosarcoma) and T47D (human breast cancer adenocarcinoma) were maintained in DMEM. HEK293 cells stably expressing the GH receptor (HEKGHR) were maintained in DMEM-F12 medium. […]
(§2) Cells were seeded in 96-well plates (BD Falcon, France) at exponential growth density (5000–20000 cells/well) and treated with vehicle (0.05% DMSO) or compound (0.01 to 10 μM) for 48–72 h. […] Optical density was measured at 595 nm with the iMark Microplate Reader (BioRad, CA, USA).
A general note: Formazan colour is commonly taken as a measure of viable cells.

Test [2] relates to MV4.11 cells. Kind of test: MTT cell viability assay, MV4.11 cells. To be noted: Homo sapiens, MV4.11, 48 h, read-out: IC50 (μM) Mean ± SD. As for the experimental part:
as §1, §2

The test system of test [3] is HL60 cells. Kind of test: MTT cell viability assay, HL60 cells. To be noted: Homo sapiens, HL-60, HL60, 48 h, read-out: IC50 (μM) Mean ± SD. Here is the method: as §1, §2
The test system of test [4] is pTyr694-Stat5 (pYStat5). Kind of test: Immunoblotting of constitutive pYStat5 in K562 cells. To be noted: Homo sapiens; K562, 3 μM CM363, 3 h. Here is the method:
Then, cells were rinsed with cold PBS-vanadate (1 mM) followed by preparation of whole lysis extract with RIPA (Pierce, Illinois, USA). Equal amounts of each sample were separated by SDS-PAGE and transfered onto nitrocellulose membranes. After being blocked with 1% BSA-1% Blotto (anti-phospho-antibodies) (Santa Cruz Biotechnology, CA, USA) or 5% blotto (anti-total-antibodies) (Santa Cruz Biotechnology, CA, USA) (both diluted in Tris buffered saline with 0.05% Tween 20), membranes were immunoblotted overnight at 4°C with dilution (1:1000) in the same buffer of blocking of primary phosphoprotein or total protein antibodies. […] To control for differences in loading and transfer efficiency across membranes, membranes were incubated with a monoclonal mouse anti-beta actin antibody (Santa Cruz Biotechnology, CA, USA). The phosphoprotein array analysis of K562 cells was carried out by using the Profiler Human Phospho-Kinase Array Kit ARY003B (R&D Systems, Minneapolis, MN, USA) according to the manufacturer`s instructions.
For orientation: In western blotting, separated proteins are transferred to a membrane and probed.

On to `N#Cc1ccc(C2C3=C(CCCC3=O)OC3=C2C(=O)c2ccccc2C3=O)cc1` (stereo not shown) [CM363, 4-(1,6,11-trioxo-2,3,4,6,11,12-hexahydro-1H-benzo[b]xanthen-12-yl)benzonitrile], for which the half-maximal inhibitory concentration (IC50) in test [1] was 0.1 ± 0.2 µM; in test [2] it was 1.2 ± 1.1 µM; in test [3], 1.3 ± 0.6 µM. For the same molecule, the inhibition at 3 µM in test [4] turned out to be 20%.
